The values that follow come from ChEMBL document CHEMBL1240392 (Antimicrob Agents Chemother, 2010).

≈ marks a conversion by molar mass, not a printed value. Calls of active or inactive are those of the source.

The subject of data set [1] is Mus musculus. Description: AUC in C57BL/6 mouse pneumonia model at 20 mg/kg, im. The following applies: in vivo. The arrangement: dose 20 mg/kg, route intramuscular. The format is ADME, organism-based.
For data set [2], the system named is Mus musculus. Put plainly: Cmax in C57BL/6 mouse pneumonia model at 20 mg/kg, im. It is filed as ADME, organism-based. The arrangement: dose 20 mg/kg, route intramuscular. The settings on record: in vivo.
For data set [3], the system named is Oryctolagus cuniculus. Put plainly: Half life in New Zealand rabbit meningitis model at 12 mg/kg, im. The format is ADME, organism-based. The settings on record: in vivo. Further details: dose 12 mg/kg, route intramuscular.
Data set [4] has as its system Mus musculus. Description: Half life in C57BL/6 mouse pneumonia model at 20 mg/kg, im. It is filed as ADME, organism-based. Further details: dose 20 mg/kg, route intramuscular. The following applies: in vivo.
The test system of data set [5] is Oryctolagus cuniculus. Put plainly: Cmax in New Zealand rabbit meningitis model at 12 mg/kg, im. It is filed as ADME, organism-based. The arrangement: dose 12 mg/kg, route intramuscular. The following applies: in vivo.
A further data set is filed under the species Homo sapiens. Description: AUC in human. It is filed as ADME, organism-based, Plasma. The following applies: in vivo.
Data set [6] has as its system Oryctolagus cuniculus. Description: AUC in New Zealand rabbit meningitis model at 12 mg/kg, im. The settings on record: in vivo. The format is ADME, organism-based. Further details: dose 12 mg/kg, route intramuscular.
A short description of data set [7]: Ratio of AUC to MIC for Acinetobacter baumannii 1327 in pharmacokinetic-pharmacodynamic New Zealand rabbit meningitis model at 30 mg/kg, im. The format is functional. The following applies: route intramuscular.
Data set [8] can be described thus: Half life in New Zealand rabbit meningitis model at 30 mg/kg, im. The format is ADME, organism-based, Oryctolagus cuniculus. The settings on record: in vivo. The arrangement: dose 30 mg/kg, route intramuscular.
The subject of data set [9] is Acinetobacter baumannii. Put plainly: Antimicrobial activity against Acinetobacter baumannii 940 after 24 hrs by time-kill assay. It is filed as functional, organism-based.
Data set [10] deals with Acinetobacter baumannii. Description: Antibacterial activity against Acinetobacter baumannii infected in C57BL/6 mouse model assessed as survival rate at total dose of 240 mg/kg/day, im administered as four divided doses measured after 72 hrs post last dose relative to control. It is filed as functional. The following applies: route intramuscular.
Data set [11] in a line: Ratio of Cmax to MIC for Acinetobacter baumannii 1327 in pharmacokinetic-pharmacodynamic New Zealand rabbit meningitis model at 30 mg/kg, im. The settings on record: route intramuscular. The format is functional.
The nature of data set [12]: Ratio of AUC to MIC for Acinetobacter baumannii 1327 in pharmacokinetic-pharmacodynamic C57BL/6 mouse pneumonia model at 60 mg/kg, im. It is filed as functional. The settings on record: route intramuscular.
For data set [13], the system named is Acinetobacter baumannii. Description: Antimicrobial activity against Acinetobacter baumannii 1417. It is filed as functional.
Data set [14] concerns Acinetobacter baumannii. Description: Antimicrobial activity against Acinetobacter baumannii infected in C57BL/6 mouse model assessed as reduction in bacterial count per gram of lung at total dose of 240 mg/kg/day, im administered as four divided doses after 72 hrs (RVb = 10.6+/-0.27). The format is functional, organism-based.
For data set [15], the system named is Acinetobacter baumannii. Put plainly: Antimicrobial activity against Acinetobacter baumannii infected in C57BL/6 mouse model assessed as reduction in bacterial count in blood at total dose of 240 mg/kg/day, im administered as four divided doses after 72 hrs. It is filed as functional. The arrangement: scale not given: the % may be the effect or the level left. The settings on record: route intramuscular.

A short description of data set [16]: T>MIC in Acinetobacter baumannii infected New Zealand rabbit meningitis model at 30 mg/kg, im. It is filed as functional. The settings on record: route intramuscular.
The nature of data set [17]: Cmax in New Zealand rabbit meningitis model at 30 mg/kg, im. The format is ADME, organism-based, Oryctolagus cuniculus. The arrangement: dose 30 mg/kg, route intramuscular. The settings on record: in vivo.
Data set [18] can be described thus: Half life in C57BL/6 mouse pneumonia model at 60 mg/kg, im. The format is ADME, organism-based. The arrangement: dose 60 mg/kg, route intramuscular. The settings on record: in vivo.
Data set [19] has as its system Acinetobacter baumannii. Put plainly: Antimicrobial activity against Acinetobacter baumannii 1417 after 24 hrs by time-kill assay. The format is functional, organism-based.
Data set [20] is described as follows: AUC in New Zealand rabbit meningitis model at 30 mg/kg, im. The format is ADME, organism-based, Oryctolagus cuniculus. Further details: dose 30 mg/kg, route intramuscular. The settings on record: in vivo.
Data set [21] has as its system Acinetobacter baumannii. Put plainly: Antimicrobial activity against Acinetobacter baumannii 506 after 24 hrs by time-kill assay. The format is functional, organism-based.
Data set [22] can be described thus: AUC in C57BL/6 mouse pneumonia model at 60 mg/kg, im. The arrangement: dose 60 mg/kg, route intramuscular. The following applies: in vivo. The format is ADME, organism-based.
Data set [23] relates to Acinetobacter baumannii. Description: Antimicrobial activity against Acinetobacter baumannii 1327. It is filed as functional.
A short description of data set [24]: T>MIC in Acinetobacter baumannii infected C57BL/6 mouse pneumonia model at 60 mg/kg, im. It is filed as functional. The following applies: route intramuscular.
In data set [25] the test system is Acinetobacter baumannii. Description: Antimicrobial activity against Acinetobacter baumannii 1327 after 24 hrs by time-kill assay. It is filed as functional, organism-based.
In data set [26] the test system is Acinetobacter baumannii. Description: Antimicrobial activity against Acinetobacter baumannii 940. The format is functional.
Data set [27] in a line: Cmax in C57BL/6 mouse pneumonia model at 60 mg/kg, im. Further details: dose 60 mg/kg, route intramuscular. The settings on record: in vivo. It is filed as ADME, organism-based.
Data set [28] deals with Acinetobacter baumannii. Description: Antimicrobial activity against Acinetobacter baumannii 506. The format is functional.
Data set [29] in a line: Ratio of Cmax to MIC for Acinetobacter baumannii 1327 in pharmacokinetic-pharmacodynamic C57BL/6 mouse pneumonia model at 60 mg/kg, im. It is filed as functional. The settings on record: route intramuscular.

Take COLISTIN: the AUC with Mus musculus [1] was found to be 26.42 µg·h/mL; in the data set filed under Homo sapiens it was 23.43 µg·h/mL; in the data set with Oryctolagus cuniculus [6] it was 41.72 µg·h/mL. Further, the Cmax with Mus musculus [2] amounted to 27.39 µg/mL; with Oryctolagus cuniculus [5], 9 µg/mL. In addition, the t1/2 with Oryctolagus cuniculus [3] worked out at 185 min; in the data set with Mus musculus [4], 32.4 min.
As to `CC1(C)[C@H](C(=O)O)N2C(=O)C[C@H]2S1(=O)=O` [SULBACTAM], the Ratio in data set [7] is given as 1.78; in [11], 2.35; in data set [12], 2.73; in data set [29] it was 2.8. In addition, the half-life in data set [8] is 32.4 min; in data set [18], 21 min. The result in the data set with Acinetobacter baumannii [9], in the data set with Acinetobacter baumannii [14], in the data set on Acinetobacter baumannii [19], with Acinetobacter baumannii [21] and in the data set on Acinetobacter baumannii [25] was Active. For the same compound, the survival at 240 mg/kg/day in the data set with Acinetobacter baumannii [10] is 40%. Moreover, the MBC against Acinetobacter baumannii [13], against Acinetobacter baumannii [23], against Acinetobacter baumannii [26] and in the data set on Acinetobacter baumannii [28] was 32 mg/L (≈ 137 µM) each time. Also, the MIC in the data set on Acinetobacter baumannii [13], against Acinetobacter baumannii [23], in the data set with Acinetobacter baumannii [26] and in the data set on Acinetobacter baumannii [28] was 32 mg/L (≈ 137 µM) in each case. Moreover, the Activity in the data set with Acinetobacter baumannii [15] is reported as 33.3%. In addition, the results for the “T>MIC” value in data set [16] and in data set [24] were 0.84 h and 1.29 h, respectively. Also, the Cmax in [17] worked out at 75.3 µg/mL; in data set [27], 89.5 µg/mL. Moreover, the AUC in data set [20] stood at 57.1 µg·h/mL; in data set [22], 87.5 µg·h/mL.

In general, AUC refers to the area under the concentration-time curve, a measure of exposure. The term Cmax denotes the peak of the concentration-time curve. One may read the half-life as the time in which the quantity being followed falls by half. One may read the MBC as the lowest tested concentration that kills the bacteria rather than only halting them. As a reminder, the MIC is the smallest concentration in the dilution series that meets the test's criterion for growth inhibition.
